For assay [1], the target named is Piezo1 (Homo sapiens). As to the kind of experiment: Antagonist activity at human Piezo1.
Assay [2] concerns the target Piezo1 (Homo sapiens). As to the kind of experiment: Inhibition of human Piezo1 assessed as intracellular calcium influx measured for 30 mins by Fluo-4 AM dye based fluorescence analysis. Background: Calcium flux is commonly read through the fluorescence of an indicator in the cells.
Assay [3] addresses Piezo1 (Homo sapiens). Briefly: Antagonist activity at Yoda1-activated human Piezo1 in HUVECs assessed as inhibition of calcium influx by calcium fluorescence assay.
Assay [4] addresses Amyloid-beta precursor protein (Homo sapiens, UniProt P05067). As to the kind of experiment: Inhibition of amyloid beta (1 to 42) (unknown origin) aggregation incubated for 24 hrs by ThT assay.

Sequence of Amyloid-beta precursor protein (P05067 whole entry): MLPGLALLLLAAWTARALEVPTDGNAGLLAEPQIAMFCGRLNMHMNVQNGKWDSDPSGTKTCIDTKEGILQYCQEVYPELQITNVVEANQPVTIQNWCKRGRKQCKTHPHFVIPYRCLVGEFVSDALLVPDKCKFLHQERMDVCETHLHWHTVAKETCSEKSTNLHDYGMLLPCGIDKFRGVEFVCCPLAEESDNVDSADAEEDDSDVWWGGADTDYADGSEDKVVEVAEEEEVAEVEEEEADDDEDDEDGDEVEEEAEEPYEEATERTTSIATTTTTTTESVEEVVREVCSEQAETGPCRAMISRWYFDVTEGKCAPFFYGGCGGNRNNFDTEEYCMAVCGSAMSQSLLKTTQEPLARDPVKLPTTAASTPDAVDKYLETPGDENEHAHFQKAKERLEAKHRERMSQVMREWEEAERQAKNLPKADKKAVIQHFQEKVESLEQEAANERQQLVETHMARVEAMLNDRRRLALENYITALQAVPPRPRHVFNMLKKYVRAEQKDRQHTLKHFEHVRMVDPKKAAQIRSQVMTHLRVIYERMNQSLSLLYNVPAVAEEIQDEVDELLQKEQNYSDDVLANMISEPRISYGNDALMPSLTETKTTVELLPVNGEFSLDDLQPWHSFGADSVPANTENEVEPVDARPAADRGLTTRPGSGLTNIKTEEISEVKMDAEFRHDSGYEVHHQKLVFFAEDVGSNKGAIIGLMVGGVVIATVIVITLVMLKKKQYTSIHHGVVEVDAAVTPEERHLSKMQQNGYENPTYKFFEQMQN

`Clc1cccc(Cl)c1CSc1nnc(-c2ccc[nH]2)o1`: the IC50 (as a rule, the concentration that gives 50% inhibition) in assay [1] was found to be 1.3 µM.

For the compound `C[C@@H]1O[C@@H](O[C@H]2[C@H](OC(=O)[C@]34CCC(C)(C)C[C@H]3C3=CC[C@@H]5[C@@]6(C)C[C@H](O)[C@@H]7O[C@@H]8O[C@H](CO)[C@@H](O)[C@H](O)[C@H]8O[C@@H]8OC[C@H](O)[C@H](O)[C@H]8OC(=O)CC(C)(O)CC(=O)OC[C@@]7(C)[C@@H]6CC[C@@]5(C)[C@]3(C)CC4)OC[C@H](O)[C@@H]2O)[C@H](O)[C@H](O[C@@H]2OC[C@@H](O)[C@H](O)[C@H]2O)[C@H]1O` (some centres undefined), the IC50 in assay [2] is 1.11 µM.

`O=C(/C=C/c1ccc(O)c2c1[C@H](C(=O)O[C@H](Cc1ccc(O)c(O)c1)C(=O)O)[C@@H](c1ccc(O)c(O)c1)O2)O[C@H](Cc1ccc(O)c(O)c1)C(=O)O`: in assay [3], the IC50 stood at 1.37 µM.

In assay [4], `CCCCCCCCCCCCCCCCC(=O)O` [HEPTADECANOIC ACID] came in with an IC50 of 28.3 µM.

The record behind these values is ChEMBL document CHEMBL5584227, “Piezo1 and its inhibitors: Overview and perspectives” (Eur J Med Chem, 2024).
